Test results as given in patent US20220296628A1, “RNA COMBINATIONS AND COMPOSITIONS WITH DECREASED IMMUNOSTIMULATORY PROPERTIES” (CureVac AG, priority 2019, published 2022).

What was measured:
mice (strain 129SV) [1] = experiment: Serum cytokines by CBA 6 hours post LNP injection; type: in vivo, mouse; settings: 6 hours post i.v. LNP injection, in a dose-dependent manner (oligo 20% or 6.7% mass), compared to PpLuc mRNA only (FIG. 4A)
Procedure: In supernatants collected from PBMC stimulated without or with 2-O-methylated oligonucleotide, the concentrations of IFN-α, IFN-γ, TNF, were measured by Cytometric Bead Array (CBA) according to the manufacturer's instructions (BD Biosciences) using the following kits: Human Soluble Protein Master Buffer Kit (catalog no. 558264), Assay Diluent (catalog no. 560104), Human IFN-α Flex Set (catalog no. 560379), Human IFN-γ Flex Set (catalog no. 558269), Human TNF Flex Set (catalog no. 560112); all kits from BD Biosciences. The data was analyzed using the FCAP Array v3.0 software (BD Biosciences). For preparation of Lipid nanoparticles (LNP) containing both PpLuc mRNA and 2-O-methylated oligonucleotide, first the 2′-O-methylated oligonucleotide was added to PpLuc mRNA at a weight percentage of either 20% or 6.7% (see Table 3). LNP containing PpLuc mRNA either with or without admixture of 2-O-methylated oligonucleotide were prepared using cationic lipid, cholesterol, PEG-lipid and a neutral lipid. The mRNA was diluted to 1 g/L in citrate buffer, pH 4. The ethanolic lipid solution was mixed with the aqueous RNA solution at a ratio of 1:3 (vol/vol) using a Nanoassemblr (PrecisionNanoSystems). The ethanol was then removed and the buffer replaced by 10 mM HEPES, pH 7.4 comprising 9% Sucrose by dialysis. Finally, the LNP-formulated RNA was adjusted to 0.2 g/L. For in vivo experiments, 8 weeks old female mice (around 25 g, strain 129SV) were injected with the various LNP formulations (see tables 4 and 5). 4 animals were used per group. 10 μg or 30 μg of mRNA formulated with or without 2′-O-methylated oligonucleotide were intravenously injected at a concentration of 0.2 g/l. Bioluminescence imaging was performed 6 hours and 24 hours post LNP injection. Blood was sampled 6 hours post LNP injection and terminally 24 hours post LNP injection. Immediately thereafter, mice were sacrificed, livers collected and placed in 1.5 ml PP tubes, frozen and stored until analysis (<−70° C.). To analyse the influence of the 2′-O-methylated oligonucleotide on immunostimulation, the concentrations of IFNγ, TNFα, IL-6, MIP-1β, RANTES, and MCP1 were measured in sera from blood collected 6 hours post LNP injection by Cytometric Bead Array (CBA), performed as described in paragraph 2.3. […] To further assess the influence of the 2′-O-methylated oligonucleotide on immunostimulation, the concentration of IFNα was measured in sera from blood collected 24 hours post LNP injection by ELISA.

mice (strain 129SV) [2] = experiment: Serum IFNα by ELISA 24 hours post LNP injection; type: in vivo, mouse; settings: 24 hours post i.v. LNP injection, in a dose-dependent manner (oligo 20% or 6.7% mass), compared to PpLuc mRNA only (FIG. 4B)
Procedure: For preparation of Lipid nanoparticles (LNP) containing both PpLuc mRNA and 2-O-methylated oligonucleotide, first the 2′-O-methylated oligonucleotide was added to PpLuc mRNA at a weight percentage of either 20% or 6.7% (see Table 3). LNP containing PpLuc mRNA either with or without admixture of 2-O-methylated oligonucleotide were prepared using cationic lipid, cholesterol, PEG-lipid and a neutral lipid. The mRNA was diluted to 1 g/L in citrate buffer, pH 4. The ethanolic lipid solution was mixed with the aqueous RNA solution at a ratio of 1:3 (vol/vol) using a Nanoassemblr (PrecisionNanoSystems). The ethanol was then removed and the buffer replaced by 10 mM HEPES, pH 7.4 comprising 9% Sucrose by dialysis. […] To analyse the influence of the 2′-O-methylated oligonucleotide on immunostimulation, the concentrations of IFNγ, TNFα, IL-6, MIP-1β, RANTES, and MCP1 were measured in sera from blood collected 6 hours post LNP injection by Cytometric Bead Array (CBA), performed as described in paragraph 2.3. […] To further assess the influence of the 2′-O-methylated oligonucleotide on immunostimulation, the concentration of IFNα was measured in sera from blood collected 24 hours post LNP injection by ELISA.

human PBMCs = experiment: PBMC co-transfection of PpLuc mRNA and antagonists (Table 6), luciferase activity in cell lysate; type: cell-based; settings: 24 hours post transfection, DOTAP, antagonist 20% weight, compared to PpLuc mRNA without admixture (FIG. 5B)
Procedure: The preparation of human PBMCs was performed according to example 2.1. For transfection experiments 2×10^5 human PBMCs per well were seeded into each well of a 96-well plate in X-Vivo 15 medium (Lonza). For preparation of DOTAP (vehicle) complexes containing both the antagonist (either 2-O-methylated oligonucleotide variants, RNA oligonucleotides, DNA oligonucleotides or small molecules) as well as PpLuc mRNA (SEQ ID NO: 82, same RNA design as shown in table 2), the antagonist was first added to PpLuc mRNA at a weight percentage of 20% (1:5 mRNA: oligo/small molecule). The molar ratio of PpLuc mRNA to antagonist was thus 1:45 (MW (Oligonucleotide)=2907 g/mol, MW (PpLuc mRNA)=652377 g/mol). DOTAP complexes containing PpLuc mRNA and antagonist were formed at a ratio of 5 μl of DOTAP per 1 μg of mRNA and 100 ng were transfected. […] To quantify background stimulation, PBMC were incubated either with DOTAP alone (“vehicle”) or RPMI (“medium”) only. […] Expression analysis was performed by measuring the luciferase activity, which is measured as relative light units (RLU) in a BioTek SynergyHT plate reader. PpLuc activity is measured at 5 seconds measuring time using 50 μl of lysate and 200 μl of luciferin buffer (75 μM luciferin, 25 mM Glycylglycin, pH 7.8 (NaOH), 15 mM MgSO4, 2 mM ATP).

5′-GAG CGmG CCA-3′ (GAGCNGCCA; 2'-O-methyl guanosine at position 5; 9mer oligonucleotide; modified_base (5)..(5) n can be any nucleotide, wherein the nucleotide is 2-O-methylated, preferably a 2-O-methylated guanosine) [Gm18, 9-mer 2′-O-methylated RNA oligonucleotide; position 5 is 2′-O-methylated guanosine (Gm); antagonist of TLR7 and 8]
release of IFNγ in sera (mice (strain 129SV) [1]): strongly decreases the release
release of IL-6 in sera (mice (strain 129SV) [1]): strongly decreases the release
release of MCP1 in sera (mice (strain 129SV) [1]): strongly decreases the release
release of MIP-1β in sera (mice (strain 129SV) [1]): strongly decreases the release
release of RANTES in sera (mice (strain 129SV) [1]): strongly decreases the release
release of TNFα in sera (mice (strain 129SV) [1]): strongly decreases the release
release of IFNα in sera (ELISA) (mice (strain 129SV) [2]): strongly decreases the release
expression of PpLuc in PBMCs (human PBMCs): increases the expression
